Values of other authors in patent publication US20190076366A1, “PHARMACEUTICAL COMPOSITION OF ENTECAVIR AND PROCESS OF MANUFACTURING” (Pharmascience, Inc., priority 2012, published 2019).

What was measured:
[1] = 25°±0.5° C.

In the case of `C=C1C(n2cnc3c(=O)[nH]c(N)nc32)C[C@H](O)[C@H]1CO` (stereo partly drawn) [Entecavir, 2-amino-l,9-dihydro-9-[(1S,3R,4S)-4-hydroxy-3-(hydroxymethyl)-2-methylenecyclopentyl]-6H-purin-6-one, monohydrate], the “pH of the saturated solution in water” value [1] is given as 7.9, the water solubility (in water) is given as 2400 µg/mL and the “solubility in purified water” value (purified water) is given as 2400 µg/mL.
